According to PubChem BioAssay (NCI):
Values joined by “and” are separate entries in the source; they are usually repeats but may differ in a detail not shown here. Identical values can stand only once.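 48-hour exposure; five concentrations; linearly interpolated endpoints. GI50 = concentration required for 50% inhibition of growth. TGI: total growth inhibition.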

Assays:
Assay in all cases: DTP human tumour cell line panel, 48 h
[1] = system: A498 renal
[2] = system: CCRF-CEM leukemia
[3] = system: DMS 114 small cell lung
[4] = system: EKVX NSCLC
[5] = system: HCC-2998 colon
[6] = system: HL-60(TB) leukemia
[7] = system: HOP-18 NSCLC
[8] = system: HOP-62 NSCLC
[9] = system: HOP-92 NSCLC
[10] = system: IGROV1 ovarian
[11] = system: K-562 leukemia
[12] = system: KM12 colon
[13] = system: KM20L2 colon
[14] = system: LOX IMVI melanoma
[15] = system: LXFL 529 NSCLC
[16] = system: M14 melanoma
[17] = system: M19-MEL melanoma
[18] = system: MALME-3M melanoma
[19] = system: MOLT-4 leukemia
[20] = system: NCI-H226 lung
[21] = system: NCI-H23 lung
[22] = system: NCI-H522 lung
[23] = system: OVCAR-4 ovarian
[24] = system: OVCAR-5 ovarian
[25] = system: OVCAR-8 ovarian
[26] = system: RPMI-8226 leukemia
[27] = system: RXF 393 renal
[28] = system: RXF-631 renal
[29] = system: SF-295 CNS
[30] = system: SF-539 CNS
[31] = system: SK-MEL-2 melanoma
[32] = system: SK-MEL-28 melanoma
[33] = system: SK-MEL-5 melanoma
[34] = system: SK-OV-3 ovarian
[35] = system: SN12C renal
[36] = system: SNB-19 CNS
[37] = system: SNB-75 CNS
[38] = system: SR leukemia
[39] = system: SW-620 colon
[40] = system: TK-10 renal
[41] = system: UACC-257 melanoma
[42] = system: UACC-62 melanoma
[43] = system: UO-31 renal
[44] = system: XF 498 CNS

Work on COc1cccc2c1C(=O)c1c(O)c3c(c(O)c1C2=O)C[C@@](O)(C(=O)CO)CC3OC1CC(NCCCC(OC(C)=O)OC(C)=O)C(O)C(C)O1 (stereo partly drawn) yielded a TGI [1] of 6.09 nM, a GI50 [2] of 0.104 nM and a TGI [2] greater than 1000 nM. For the same molecule, the GI50 [3] was less than 0.1 nM, the TGI [3] was 0.341 nM and the GI50 [4] was 0.305 nM. For the same molecule, the TGI [4] was 6.18 nM and 1.19 nM, the GI50 [5] was 0.324 nM and the TGI [5] was 5.93 nM and 1.91 nM. It also gave a TGI [6] of 5.8 nM, a GI50 [7] of 5.07 nM and a TGI [8] of 4.61 nM. For the same molecule, the GI50 [9] was 0.24 nM, the TGI [9] was 6.5 nM and 0.862 nM and the GI50 [10] was 0.754 nM. The TGI [10] was greater than 1000 nM, the GI50 [11] was less than 0.1 nM and the TGI [11] was 0.729 nM. It also gave a GI50 [12] of less than 0.1 nM, a TGI [12] of 0.187 nM and a GI50 [13] of less than 0.1 nM. The TGI [13] was 167 nM, the TGI [14] was 0.743 nM and the TGI [15] was 8.72 nM. The GI50 [16] was less than 0.1 nM, the GI50 [17] was less than 0.1 nM and the TGI [17] was 0.323 nM. The TGI [18] was 4.52 nM, the GI50 [19] was 0.123 nM and the TGI [20] was 5.79 nM. For the same molecule, the GI50 [21] was less than 0.1 nM, the GI50 [22] was less than 0.1 nM and the TGI [22] was 3.46 nM and 0.412 nM. The GI50 [23] was less than 0.1 nM, the GI50 [24] was 0.347 nM and the TGI [24] was 701 nM. For the same molecule, the GI50 [25] was less than 0.1 nM, the TGI [25] was 11.9 nM and the GI50 [26] was less than 0.1 nM. The TGI [26] was 0.403 nM, the GI50 [27] was 0.198 nM and the TGI [27] was 3.28 nM and 0.813 nM. It also gave a TGI [28] of 0.897 nM, a GI50 [29] of less than 0.1 nM and a TGI [29] of 0.645 nM. For the same molecule, the GI50 [30] was less than 0.1 nM, the TGI [30] was 4.45 nM and 1.15 nM and the GI50 [31] was less than 0.1 nM. The TGI [32] was 7.87 nM, the GI50 [33] was less than 0.1 nM and the TGI [33] was 0.28 nM. The GI50 [34] was 0.298 nM, the TGI [34] was greater than 1000 nM and the GI50 [35] was less than 0.1 nM. It also gave a TGI [35] greater than 1000 nM, a GI50 [36] of 0.202 nM and a GI50 [37] of less than 0.1 nM. The TGI [37] was 4.03 nM and 0.406 nM, the TGI [38] was 0.288 nM and the GI50 [39] was less than 0.1 nM. It also gave a TGI [39] greater than 1000 nM, a GI50 [40] of 363 nM and a TGI [40] greater than 1000 nM. The GI50 [41] was 0.314 nM, the TGI [41] was 7.39 nM and 1.44 nM and the GI50 [42] was less than 0.1 nM. The TGI [43] was 4.27 nM and the GI50 [44] was 0.1 nM.
